Common to all, as to assay type: functional
The subject of assay [1] is Pseudomonas aeruginosa. Briefly: Antimicrobial activity against Pseudomonas aeruginosa SR24 in presence of human apo-transferrin by broth microdilution method.
Assay [2] concerns Pseudomonas aeruginosa. Briefly: Antimicrobial activity against AmpC overproducing Pseudomonas aeruginosa SR24-12 in presence of human apo-transferrin by broth microdilution method.
Assay [3] deals with Pseudomonas aeruginosa. Briefly: Antimicrobial activity against IMP-1 producing Pseudomonas aeruginosa SR27001 in presence of human apo-transferrin by broth microdilution method. A general note: In broth dilution the organism is exposed to a series of concentrations in liquid medium.
Assay [4] deals with Pseudomonas aeruginosa. Briefly: Antimicrobial activity against VIM-2 producing Pseudomonas aeruginosa SBRKM-28 in presence of human apo-transferrin by broth microdilution method.
The subject of assay [5] is Pseudomonas aeruginosa. Briefly: Antimicrobial activity against IMP-1 producing Pseudomonas aeruginosa SR27060 in presence of human apo-transferrin by broth microdilution method.
Assay [6] deals with Pseudomonas aeruginosa. Nature of the assay: Antimicrobial activity against Pseudomonas aeruginosa 27060deltaR1 harboring deletion of R1 plasmid in presence of human apo-transferrin by broth microdilution method.
In assay [7] the test system is Stenotrophomonas maltophilia. Nature of the assay: Antimicrobial activity against L-1 producing Stenotrophomonas maltophilia SR21970 in presence of human apo-transferrin by broth microdilution method.
In assay [8] the test system is Acinetobacter baumannii. Briefly: Antimicrobial activity against OXA-23/OXA-58 producing Acinetobacter baumannii SR27323 in presence of human apo-transferrin by broth microdilution method.
Assay [9] relates to Klebsiella pneumoniae. Nature of the assay: Antimicrobial activity against KPC-2 producing Klebsiella pneumoniae ATCC BAA-1705 in presence of human apo-transferrin by broth microdilution method.
Assay [10] deals with Escherichia coli. Nature of the assay: Antimicrobial activity against SHV-4 producing Escherichia coli ATCC BAA-200 in presence of human apo-transferrin by broth microdilution method.

We go through 7 molecules from ChEMBL document CHEMBL4152326 (2018).

A value given as a limit tells only on which side of the number the result lay.

Turning to `C[C@H](O/N=C(\C(=O)N[C@@H]1C(=O)N2C(C(=O)[O-])=C(C[N+]3(CCNC(=O)c4ccc(O)c(O)c4Cl)CCCC3)CS[C@H]12)c1csc(N)n1)C(=O)O`, the MIC – broadly, the lowest concentration found to suppress growth – in assay [1] is 0.25 µg/mL; in assay [2] it was 0.25 µg/mL; in assay [3], 1 µg/mL; in assay [4], 0.125 µg/mL; in assay [5], 2 µg/mL; in [6], 1 µg/mL. Besides, the MIC in assay [7] was 0.5 µg/mL; in assay [8] it was 1 µg/mL; in assay [9] it was 0.063 µg/mL; in assay [10] it was 4 µg/mL.

As for `CC(C)(O/N=C(\C(=O)N[C@@H]1C(=O)N2C(C(=O)[O-])=C(C[N+]3(CCC(=O)Nc4ccc(O)c(O)c4Cl)CCCC3)CS[C@H]12)c1csc(N)n1)C(=O)O`, the MIC was determined as 0.25 µg/mL in [1]; 0.5 µg/mL in assay [2]; 2 µg/mL in assay [3]; 0.25 µg/mL in assay [4]; 2 µg/mL in assay [5]; 1 µg/mL in [6]. For the same molecule, the MIC came out at 1 µg/mL in assay [7], 2 µg/mL in assay [8], 0.25 µg/mL in [9] and 2 µg/mL in assay [10].

Consider `Nc1nc(/C(=N/OCc2cccc(C(=O)O)c2)C(=O)N[C@@H]2C(=O)N3C(C(=O)[O-])=C(C[N+]4(CCNC(=O)c5ccc(O)c(O)c5Cl)CCCC4)CS[C@H]23)cs1`, for which the MIC in assay [1] is 0.25 µg/mL; in assay [2], 0.5 µg/mL; in [3] it was 1 µg/mL; in assay [4] it was 0.125 µg/mL; in [5] it was 8 µg/mL; in assay [6], 2 µg/mL. Further, the MIC in assay [7] was 2 µg/mL; in assay [8], 0.5 µg/mL; in assay [9] it was 2 µg/mL; in assay [10], 16 µg/mL.

As to `CC(C)(O/N=C(\C(=O)N[C@@H]1C(=O)N2C(C(=O)[O-])=C(C[N+](C)(C)CCNC(=O)c3ccc(O)c(O)c3Cl)CS[C@H]12)c1csc(N)n1)C(=O)O`, the MIC in assay [1] is 0.063 µg/mL; in assay [2], 4 µg/mL; in assay [3] it was greater than 32 µg/mL; in assay [4], 0.25 µg/mL; in assay [5], 32 µg/mL; in assay [6], 2 µg/mL. Further, the MIC was greater than 32 µg/mL in [7], 0.5 µg/mL in assay [8], 0.5 µg/mL in [9] and greater than 32 µg/mL in [10].

Regarding `CC(C)(O/N=C(\C(=O)N[C@@H]1C(=O)N2C(C(=O)[O-])=C(C[n+]3cc(NC(=O)c4ccc(O)c(O)c4Cl)c4n3CCN4)CS[C@H]12)c1csc(N)n1)C(=O)O`, the MIC was 0.25 µg/mL in assay [1]; 0.5 µg/mL in assay [2]; 16 µg/mL in assay [3]; 0.5 µg/mL in assay [4]; 16 µg/mL in assay [5]; 0.5 µg/mL in [6]. For the same molecule, the MIC was greater than 16 µg/mL in assay [7], 0.5 µg/mL in assay [8], 0.125 µg/mL in assay [9] and 1 µg/mL in [10].

`CC(C)(O/N=C(\C(=O)N[C@@H]1C(=O)N2C(C(=O)[O-])=C(C[N+]3(CCNC(=O)c4ccc(O)c(O)c4Cl)CCCC3)CS[C@H]12)c1nc(N)sc1Cl)C(=O)O`: the MIC in assay [1] is 0.25 µg/mL; in [2] it was 0.5 µg/mL; in [3] it was 1 µg/mL; in assay [4], 0.125 µg/mL; in assay [5], 1 µg/mL; in assay [6], 1 µg/mL. The MIC came out at 2 µg/mL in assay [7], 2 µg/mL in [8], 0.063 µg/mL in assay [9] and 1 µg/mL in assay [10].

As for `CC(C)(O/N=C(\C(=O)N[C@@H]1C(=O)N2C(C(=O)[O-])=C(C[n+]3ccc(NC(=O)c4ccc(O)c(O)c4Cl)cc3)CS[C@H]12)c1csc(N)n1)C(=O)O`, the MIC in assay [1] worked out at 0.063 µg/mL; in [2], 0.25 µg/mL; in [3] it was 2 µg/mL; in assay [4] it was 0.125 µg/mL; in assay [5], 2 µg/mL; in assay [6], 0.5 µg/mL. The MIC in [7] was 1 µg/mL; in [8], 2 µg/mL; in assay [9], 0.25 µg/mL; in assay [10], 2 µg/mL.
